Data from patent US20260256792A1, “TREATMENT OF CHRONIC SPONTANEOUS URTICARIA BY ADMINISTERING (R)-2-[3-[4-AMINO-3-(2-FLUORO-4-PHENOXY-PHENYL)PYRAZOLO[3,4-D]PYRIMIDIN-1-YL]PIPERIDINE-1-CARBONYL]-4-METHYL-4-[4-(OXETAN-3-YL)PIPERAZIN-1-YL]PENT-2-ENENITRILE” (priority 2023, published 2026).

System: moderate-to-severe chronic spontaneous urticaria (CSU)
Test: Phase 2 CSU study: urticaria activity score over 7 days (UAS7)
Assay type: in vivo, human
Conditions: Omalizumab-Naïve
Excerpt: The study comprises a 12 week, randomized, double-blind, placebo-controlled, multi-center, dose-ranging efficacy and safety phase, followed by a 40 week open label extension (OLE) phase (see FIG. 1). The study consists of three phases and an optional OLE phase. […] Clinically, CSU is characterized by the spontaneous and recurrent appearance of pruritic hives. The proposed primary endpoints were the UAS7 at Week 12 in EU and EU reference countries and the ISS7 in the US. Regardless of where a participant was from, all assessments were the same. The UAS7 score is a composite score containing both the HSS7 and the ISS7. This allowed a global assessment of the two key components of urticaria: hives and itch. […] The UAS is a validated PRO measure. […] The daily UAS scores range from 0 to 6 point/day. […] Patients were to complete the UAS using the e-diary. […] The following secondary endpoints were to be analyzed using the same approach as for the primary endpoint: • Change from baseline in UAS7 at Week 4 • Change from baseline in UAS7 at Week 12 (for US and US reference countries) • Change from baseline in ISS7 at Week 12 (except US and US reference countries) • Change from baseline in HSS7 at Week 12 The following responder secondary endpoints were to be analyzed using the Cochran-Mantel-Haenszel test adjusted by region: • Proportion of participants with UAS7<6 at Week 12 • Proportion of participants with UAS7=0 at Week 12 Participants who received selected prohibited medications and/or rescue medications were to be considered as non-responders for time points after the medication usage. For other participants, all available data including those collected during the off-treatment period were to be used to determine the responder/non-responder status. Missing data were to be considered as non-responders.

[1] = Ethnicity Non-Hispanic, 400 mg TID
[2] = History of angioedema No, 400 mg BID
[3] = History of angioedema No, 400 mg QPM
[4] = History of angioedema No, 400 mg TID
[5] = History of angioedema Yes, 400 mg BID
[6] = History of angioedema Yes, 400 mg QPM
[7] = History of angioedema Yes, 400 mg TID
[8] = Race All the Others, 400 mg BID
[9] = Race All the Others, 400 mg QPM
[10] = Race All the Others, 400 mg TID
[11] = Region Eastern Europe, 400 mg BID
[12] = Region Eastern Europe, 400 mg QPM
[13] = Region Eastern Europe, 400 mg TID
[14] = Region Latin America, 400 mg BID
[15] = Region Latin America, 400 mg QPM

Compound: CC(C)(C=C(C#N)C(=O)N1CCC[C@@H](n2nc(-c3ccc(Oc4ccccc4)cc3F)c3c(N)ncnc32)C1)N1CCN(C2COC2)CC1 [rilzabrutinib, (R)-2-[3-[4-amino-3-(2-fluoro-4-phenoxy-phenyl)pyrazolo[3,4-d]pyrimidin-1-yl]piperidine-1-carbonyl]-4-methyl-4-[4-(oxetan-3-yl)piperazin-1-yl]pent-2-enenitrile]
- Change from Baseline in UAS7 at Week 12: Mean (SD) (Ethnicity Non-Hispanic, 400 mg QPM): −10.78 (9.25)
- Change from Baseline in UAS7 at Week 12: LS Mean (SE) [1]: −19.24 (2.48)
- Change from Baseline in UAS7 at Week 12: Mean (SD) [1]: −22.02 (10.28)
- Change from Baseline in UAS7 at Week 12: Mean (SD) (Gender Female, 400 mg BID): −13.23 (11.66)
- Change from Baseline in UAS7 at Week 12: Mean (SD) (Gender Female, 400 mg QPM): −10.93 (9.28)
- Change from Baseline in UAS7 at Week 12: Mean (SD) (Gender Female, 400 mg TID): −20.41 (11.94)
- Change from Baseline in UAS7 at Week 12: LS Mean (SE) (Gender Male, 400 mg BID): −16.67 (3.54)
- Change from Baseline in UAS7 at Week 12: Mean (SD) (Gender Male, 400 mg BID): −16.87 (13.20)
- Change from Baseline in UAS7 at Week 12: LS Mean (SE) (Gender Male, 400 mg QPM): −8.84 (4.15)
- Change from Baseline in UAS7 at Week 12: Mean (SD) (Gender Male, 400 mg QPM): −9.58 (10.13)
- Change from Baseline in UAS7 at Week 12: Mean (SD) (Gender Male, 400 mg TID): −12.72 (5.65)
- Change from Baseline in UAS7 at Week 12: LS Mean (SE) [2]: −15.01 (2.39)
- Change from Baseline in UAS7 at Week 12: LS Mean Diff vs. placebo (95% CI) [2]: −5.13 (−12.18, 1.92)
- Change from Baseline in UAS7 at Week 12: Mean (SD) [2]: −17.10 (12.56)
- Change from Baseline in UAS7 at Week 12: LS Mean (SE) [3]: −7.72 (2.58)
- Change from Baseline in UAS7 at Week 12: LS Mean Diff vs. placebo (95% CI) [3]: 2.16 (−5.19, 9.52)
- Change from Baseline in UAS7 at Week 12: Mean (SD) [3]: −9.12 (7.74)
- Change from Baseline in UAS7 at Week 12: LS Mean (SE) [4]: −17.97 (2.40)
- Change from Baseline in UAS7 at Week 12: LS Mean Diff vs. placebo (95% CI) [4]: −8.09 (−15.14, −1.03)
- Change from Baseline in UAS7 at Week 12: Mean (SD) [4]: −20.20 (12.00)
- Change from Baseline in UAS7 at Week 12: LS Mean (SE) [5]: −11.58 (3.69)
- Change from Baseline in UAS7 at Week 12: LS Mean Diff vs. placebo (95% CI) [5]: −1.91 (−11.17, 7.35)
- Change from Baseline in UAS7 at Week 12: Mean (SD) [5]: −8.60 (9.01)
- Change from Baseline in UAS7 at Week 12: LS Mean (SE) [6]: −11.20 (2.97)
- Change from Baseline in UAS7 at Week 12: LS Mean Diff vs. placebo (95% CI) [6]: −1.53 (−9.72, 6.65)
- Change from Baseline in UAS7 at Week 12: Mean (SD) [6]: −13.08 (11.63)
- Change from Baseline in UAS7 at Week 12: LS Mean (SE) [7]: −15.33 (3.68)
- Change from Baseline in UAS7 at Week 12: LS Mean Diff vs. placebo (95% CI) [7]: −5.66 (−14.82, 3.50)
- Change from Baseline in UAS7 at Week 12: Mean (SD) [7]: −16.58 (10.23)
- Change from Baseline in UAS7 at Week 12: LS Mean (SE) [8]: −11.33 (3.66)
- Change from Baseline in UAS7 at Week 12: LS Mean Diff vs. placebo (95% CI) [8]: −4.82 (−14.87, 5.24)
- Change from Baseline in UAS7 at Week 12: Mean (SD) [8]: −11.25 (10.32)
- Change from Baseline in UAS7 at Week 12: LS Mean (SE) [9]: −8.43 (3.32)
- Change from Baseline in UAS7 at Week 12: LS Mean Diff vs. placebo (95% CI) [9]: −1.92 (−11.55, 7.72)
- Change from Baseline in UAS7 at Week 12: Mean (SD) [9]: −9.59 (9.91)
- Change from Baseline in UAS7 at Week 12: LS Mean (SE) [10]: −14.94 (3.44)
- Change from Baseline in UAS7 at Week 12: LS Mean Diff vs. placebo (95% CI) [10]: 8.43 (−18.08, 1.23)
- Change from Baseline in UAS7 at Week 12: Mean (SD) [10]: −14.86 (9.62)
- Change from Baseline in UAS7 at Week 12: LS Mean (SE) (Race White, 400 mg BID): −15.38 (2.37)
- Change from Baseline in UAS7 at Week 12: LS Mean Diff vs. placebo (95% CI) (Race White, 400 mg BID): −4.73 (−11.30, 1.84)
- Change from Baseline in UAS7 at Week 12: Mean (SD) (Race White, 400 mg BID): −15.92 (12.79)
- Change from Baseline in UAS7 at Week 12: LS Mean (SE) (Race White, 400 mg QPM): −9.37 (2.37)
- Change from Baseline in UAS7 at Week 12: LS Mean Diff vs. placebo (95% CI) (Race White, 400 mg QPM): 1.28 (−5.33, 7.88)
- Change from Baseline in UAS7 at Week 12: LS Mean (SE) (Race White, 400 mg TID): −17.97 (2.44)
- Change from Baseline in UAS7 at Week 12: LS Mean Diff vs. placebo (95% CI) (Race White, 400 mg TID): −7.33 (−13.95, −0.70)
- Change from Baseline in UAS7 at Week 12: Mean (SD) (Race White, 400 mg TID): −20.70 (11.84)
- Change from Baseline in UAS7 at Week 12: LS Mean (SE) (Region Asia, 400 mg BID): −11.32 (3.76)
- Change from Baseline in UAS7 at Week 12: LS Mean Diff vs. placebo (95% CI) (Region Asia, 400 mg BID): −4.86 (−15.18, 5.46)
- Change from Baseline in UAS7 at Week 12: Mean (SD) (Region Asia, 400 mg BID): −11.25 (10.32)
- Change from Baseline in UAS7 at Week 12: LS Mean (SE) (Region Asia, 400 mg QPM): −9.00 (3.50)
- Change from Baseline in UAS7 at Week 12: Mean (SD) (Region Asia, 400 mg QPM): −9.59 (9.91)
- Change from Baseline in UAS7 at Week 12: LS Mean (SE) (Region Asia, 400 mg TID): −14.25 (3.99)
- Change from Baseline in UAS7 at Week 12: LS Mean Diff vs. placebo (95% CI) (Region Asia, 400 mg TID): −7.78 (−18.32, 2.76)
- Change from Baseline in UAS7 at Week 12: LS Mean (SE) [11]: −6.34 (10.64)
- Change from Baseline in UAS7 at Week 12: LS Mean Diff vs. placebo (95% CI) [11]: 13.37 (−19.79, 46.54)
- Change from Baseline in UAS7 at Week 12: Mean (SD) [11]: −20.14 (18.13)
- Change from Baseline in UAS7 at Week 12: LS Mean (SE) [12]: −5.35 (5.65)
- Change from Baseline in UAS7 at Week 12: LS Mean Diff vs. placebo (95% CI) [12]: 14.37 (−6.40, 35.15)
- Change from Baseline in UAS7 at Week 12: Mean (SD) [12]: −5.79 (5.45)
- Change from Baseline in UAS7 at Week 12: LS Mean (SE) [13]: −25.97 (6.17)
- Change from Baseline in UAS7 at Week 12: LS Mean Diff vs. placebo (95% CI) [13]: −6.26 (−24.55, 12.03)
- Change from Baseline in UAS7 at Week 12: Mean (SD) [13]: −21.88 (11.40)
- Change from Baseline in UAS7 at Week 12: LS Mean (SE) [14]: −9.26 (3.71)
- Change from Baseline in UAS7 at Week 12: LS Mean Diff vs. placebo (95% CI) [14]: 2.62 (−7.19, 12.43)
- Change from Baseline in UAS7 at Week 12: Mean (SD) [14]: −10.23 (11.81)
- Change from Baseline in UAS7 at Week 12: LS Mean (SE) [15]: −10.74 (3.14)
- Change from Baseline in UAS7 at Week 12: LS Mean Diff vs. placebo (95% CI) [15]: 1.14 (−7.86, 10.15)
